# Assay results as given in patent publication US12234216B2, “Isotopologues salts, crystalline forms, stereoisomers, of methylone and ethylone and methods of use thereof” (Terran Biosciences Inc., priority 2021, dated 2025).
# Counter-ions that a name gives are not always drawn.
# Columns and labels:
# [1] = Solubility screen (solvent aliquots, visual inspection); type: physicochemical
# Experimental: The experiments were carried out by adding the test solvent in aliquots to weighed portions of solid. Whether dissolution had occurred was judged by visual inspection after addition of each solvent aliquot. Solubility numbers recorded in Table 4 were calculated by dividing the weight of the sample by the total amount of solvent used to dissolve the sample. The actual solubilities may be greater than the numbers calculated because of the use of solvent aliquots that were too large or because of slow dissolution rates. All solubility measurements were carried out at room temperature unless noted otherwise.
# [2] = Dynamic vapor sorption (DVS); type: physicochemical
# [3] = Plasma and brain concentration at the end of the zero maze study; type: in vivo, rat; conditions: terminal samples after 5, 15, 30 mg/kg ip; FIG. 68 and FIG. 69
# Experimental: Terminal sampling. At the end of the study, terminal blood was collected from 2 of the vehicle treated rats (>5 mL) and from all methylone HCl treated rats (500 uL) by CP under CO2. Blood samples were placed into Eppendorf tubes on ice containing 22 μL/mL blood (vehicle treated) or 11 μL EDTA (93 mg/mL) (Methylone HCl treated rats) and gently mixed. After no longer than 30 min, blood samples were centrifuged at 10,000 rpm×3 min and plasma samples (>2 mL (vehicle) or 2×100 μL (Methylone HCl treated) placed into Eppendorf tubes (Vehicle) or 96 well plates on dry ice. Immediately after blood sampling, brains were excised, rinsed in saline, blotted, weighed and snap-frozen in liquid N2. All samples were stored at −20° C. until dispatched on dry ice for analysis.
# Terminal sampling. At the end of the study, terminal blood was collected from 2 of the vehicle treated rats (>5 mL) and from all S-methylone HCl treated rats (500 uL) by CP under CO2. Blood samples were placed into Eppendorf tubes on ice containing 22 μL/mL blood (vehicle treated) or 11 μL EDTA (93 mg/mL) (S-methylone HCl treated rats) and gently mixed. […]
# [4] = test system: participants diagnosed with at least moderate post-traumatic stress disorder (PTSD); experiment: Double-blind, randomized, placebo-controlled clinical trial of methylone-assisted psychotherapy in PTSD; type: in vivo, human
# Experimental: A multicenter, randomized, double-blind, placebo-controlled trial is conducted to assess the efficacy and safety of methylone-assisted psychotherapy versus psychotherapy with placebo control in participants diagnosed with at least moderate post-traumatic stress disorder (PTSD).
# This multicenter, randomized, double-blind, placebo-controlled trial is conducted at various sites in the United States with IRB approval from each study site. A flexible dose of methylone hydrochloride salt or placebo, followed by a supplemental half-dose unless contraindicated by patient's previous response or medical history, is also administered during the Treatment Period with psychotherapy in at least 3 blinded monthly Experimental Sessions. The Supplemental Dose extends the duration of drug effects on the participants during an Experimental Session. Methylone test groups are further subdivided into specific groups receiving only racemic methylone hydrochloride salt, S-methylone hydrochloride salt, or R-methylone hydrochloride salt. An optional Risk Evaluation and Mitigation Strategy (REMS) Protocol may be implemented for the racemic methylone, S-methylone, and placebo-groups. The Treatment Period lasts for approximately 12 weeks. During the Treatment Period, each Experimental Session is followed by three Intervening Sessions of non-drug psychotherapy. Each Experimental Session involves an overnight stay. The Primary Outcome measure, the change in Clinician Administered PTSD Scale for DSM-5 (CAPS-5), is determined by a blinded Independent Rater (IR) pool multiple times throughout the study. The study consists of separate periods for each participant. Initially, prospective participants undergo a Screening Period involving an initial eligibility assessment, a medical history intake, informed consent, and enrollment of eligible participants. Next, a Preparation Period is undertaken for enrolled participants involving medication tapering and clinical baseline assessments to confirm each participant meets enrollment criteria. As part of the Preparation Period, a detailed assessment of co-morbidities to PTSD is recorded. Participants may remain on prescribed courses of selective serotonin reuptake inhibitor (SSRI) or serotonin and norepinephrine reuptake inhibitor (SNRI) treatment. Dosages and/or frequency of administration of a prescribed SSRI or SNRI may be adjusted to fit within study parameters. Participants may be required to taper a prescribed course of medication in order to maintain eligibility within the study. The Treatment Period consists of three monthly Experimental Sessions and associated Intervening Sessions of integrative behavioral psychotherapy. The Treatment Period lasts approximately 12 weeks. Following the Treatment Period is a Follow-up Period and Study Conclusion. During the Follow-up Period and Study Conclusion, participants complete 4 weeks with no study visits, followed by a Study Conclusion visit.
# This study compares the effects of three blinded Experimental Sessions of psychotherapy in combination with flexible doses of methylone or placebo administered as described below. Non-drug preparatory and intervening psychotherapy sessions are also included. Patient's weight is determined for dosage calculation. Initial dose is 100 mg unless this will result in a dosage of less than 1.5 mg/kg of patient weight. Initial dose thereby adjusted upward in 25 mg increments to deliver the lowest dose possible of at least 1.5 mg/kg of patient weight. Initial dose for Experimental Session 2 and 3 is cumulative dose calculated by adding the initial dose plus REMS protocol dose used the previous Experimental Session for each patient.
# Randomization occurs prior to the initiation of Experimental Session 1. Each participant is provided the next randomized number in a sequence by a blinded study monitor. […]
# [5] = Study Conclusion, vs placebo-treated controls
smiles,measurement,setting,value
"CNC(C)C(=O)c1ccc2c(c1)OCO2 (racemic) [(rac)-Methylone Hydrochloride, 3,4-methylenedioxy-N-methylcathinone hydrochloride]",Solubility,"[1]; MeOH, room temperature",48 mg/mL
same,Solubility,"[1]; MeOH/CHCl3 50/50, room temperature",45 mg/mL
same,relative humidity above which water uptake is seen,[2]; DVS (FIG. 26),above 75 % RH
same,physical stability after the moisture sorption-desorption analysis,[2]; between 5% RH and 95% RH,physically stable
same,behaviour of the material on humidity exposure,[2]; exposed to 75% RH for 2 hours,became tacky and stuck to the vial
same,concentration in plasma and brain,[3],increased in both brain and plasma at the higher doses
same,CAPS-5 assessments compared to placebo-treated controls,"[4]; Intervening Session 1C, 2C, 3C and Study Conclusion",Significant improvements in CAPS-5 assessments
same,daytime sleepiness as measured by ESS,[4]; Study Conclusion,significant improvement in lessening daytime sleepiness
same,clinician-rated functional impairment score as measured by SDS,[4]; [5],significant improvement in clinician-rated functional impairment score
same,depression as measured by HAM-D,[4]; [5],significant improvement depression
same,change in CAPS-5 assessment compared to the placebo group,"[4]; Study Conclusion, 100-200 mg p.o. initial dose, 3 Experimental Sessions with psychotherapy",significant mean reduction in CAPS-5 assessment
